Experimental findings from paper doi:10.1101/2020.12.13.873687v1 (biorxiv, 2020) are described below.

The target in this test is human amylin (islet amyloid polypeptide, IAPP) (Homo sapiens, UniProt P10997). Put plainly: thioflavin T fluorescence amyloid aggregation inhibition. It counts as biochemical.
Sequence of human amylin (islet amyloid polypeptide, IAPP) (P10997 34-70): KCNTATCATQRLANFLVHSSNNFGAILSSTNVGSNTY
In turn, `O=C(O)[C@H](O)Cc1ccc(O)c(O)c1` [salvianic acid A] gave a 50% inhibitory concentration (IC50) of 90 µM.
For `O=C(/C=C/c1ccc(O)c(O)c1)O[C@H](Cc1ccc(O)c(O)c1)C(=O)O` [rosmarinic acid], the IC50 lay within 0.2 to 0.3 µM.
With `O=C(O[C@@H]1Cc2c(O)cc(O)cc2O[C@@H]1c1cc(O)c(O)c(O)c1)c1cc(O)c(O)c(O)c1` [Epigallocatechin gallate, reference compound], the IC50 is around 1 µM.
For `O=C(O)/C=C/c1ccc(O)c(O)c1` [caffeic acid] the value was 7.2 µM.

The IC50 is the concentration needed to halve the response being measured. Higher therefore signals lower potency.
